According to patent US20160185797A1, “ALKYNYL ALCOHOLS AND METHODS OF USE” (Genentech, Inc., priority 2013, published 2016):

Target: T1, nuclear factor-kappa B (NF-kB)-inducing kinase (NIK) (Homo sapiens, UniProt Q99558)
T1 construct: made in house; host or cells: baculovirus-infected insect cells
Assay: NIK enzyme inhibition assay (Transcreener ADP fluorescence polarization, NIK ADP-FP)
Assay type: biochemical

T1 sequence (Q99558 whole entry): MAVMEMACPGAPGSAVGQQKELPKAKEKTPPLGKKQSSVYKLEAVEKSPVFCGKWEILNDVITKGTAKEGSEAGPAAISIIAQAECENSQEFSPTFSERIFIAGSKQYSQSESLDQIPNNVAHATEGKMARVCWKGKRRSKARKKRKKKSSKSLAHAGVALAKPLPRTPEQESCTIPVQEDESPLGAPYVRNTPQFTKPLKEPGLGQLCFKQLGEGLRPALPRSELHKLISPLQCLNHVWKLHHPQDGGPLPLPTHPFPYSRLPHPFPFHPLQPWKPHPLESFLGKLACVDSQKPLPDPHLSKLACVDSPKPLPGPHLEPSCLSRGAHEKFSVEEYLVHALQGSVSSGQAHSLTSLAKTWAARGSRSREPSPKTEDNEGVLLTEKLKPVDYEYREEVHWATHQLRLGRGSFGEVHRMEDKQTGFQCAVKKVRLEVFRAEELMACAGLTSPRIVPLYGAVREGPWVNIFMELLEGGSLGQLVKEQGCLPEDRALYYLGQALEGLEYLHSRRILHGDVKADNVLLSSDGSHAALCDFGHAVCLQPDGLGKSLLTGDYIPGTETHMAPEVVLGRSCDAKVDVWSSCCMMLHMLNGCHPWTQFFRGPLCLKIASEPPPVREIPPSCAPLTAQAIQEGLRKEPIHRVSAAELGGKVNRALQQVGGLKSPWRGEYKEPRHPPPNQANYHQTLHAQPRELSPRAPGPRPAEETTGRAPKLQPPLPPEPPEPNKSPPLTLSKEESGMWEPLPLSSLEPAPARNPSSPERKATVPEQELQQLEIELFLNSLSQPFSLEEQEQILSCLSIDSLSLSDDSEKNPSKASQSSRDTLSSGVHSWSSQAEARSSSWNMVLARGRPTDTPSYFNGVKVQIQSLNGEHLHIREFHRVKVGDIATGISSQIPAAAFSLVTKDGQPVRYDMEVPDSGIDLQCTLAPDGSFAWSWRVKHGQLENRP

| Ki | SMILES |
| --- | --- |
| < 0.1 nM | CN1CC[C@@](O)(C#Cc2cccc(-c3nc(C(N)=O)c4cnn(C5CC5)c4n3)c2)C1=O [Example 193, 1-cyclopropyl-6-[3-[2-[(3R)-3-hydroxy-1-methyl-2-oxo-pyrrolidin-3-yl]ethynyl]phenyl]pyrazolo[3,4-d] pyrimidine-4-carboxamide] |
| 0.96 nM | CN1CC[C@@](O)(C#Cc2cccc(-c3cc(O)cc(C(N)=O)n3)c2)C1=O [Example 176, 4-hydroxy-6-[3-[2-[(3R)-3-hydroxy-1-methyl-2-oxo-pyrrolidin-3-yl]ethynyl]phenyl] pyridine-2-carboxamide] |
| 510 nM | Cc1cnc([C@@](C)(O)C#Cc2cccc(-c3nc(C(N)=O)c4ccn(C)c4n3)c2)o1 [Example 54, 2-[3-[(3S)-3-hydroxy-3-(5-methyloxazol-2-yl)but-1-ynyl]phenyl]-7-methyl-pyrrolo[2,3-d] pyrimidine-4-carboxamide] |
| 1.77 nM | CC(C)n1ncc2c(-c3cccc(C#C[C@]4(O)CCN(C)C4=O)c3)nc(C(N)=O)cc21 [Example 115, 4-[3-[2-[(3R)-3-hydroxy-1-methyl-2-oxo-pyrrolidin-3-yl]ethynyl]phenyl]-1-isopropyl-pyrazolo[4,3-c]pyridine-6-carboxamide] |
| < 0.05 nM | CN1CC[C@@](O)(C#Cc2cc(-c3nc(C(N)=O)cc4c3cnn4C)ccc2F)C1=O [Example 177, 4-[4-fluoro-3-[2-[(3R)-3-hydroxy-l-methyl-2-oxo-pyrrolidin-3-yl]ethynyl]phenyl]-1-methyl-pyrazolo [4,3-c]pyridine-6-carboxamide] |
| 0.4 nM | CN1CC[C@@](O)(C#Cc2cccc(-c3nc(C(N)=O)c4c(n3)N(C)CC4)c2)C1=O [Example 192, 2-[3-[2-[(3R)-3-hydroxy-1-methyl-2-oxo-pyrrolidin-3-yl]ethynyl]phenyl]-7-methyl-5,6-dihydropyrrolo[2,3-d] pyrimidine-4-carboxamide] |
| 60.2 nM | Cc1nnc([C@](C)(O)C#Cc2cccc(-c3nccc(C(N)=O)n3)c2)o1 [Example 138, 2-[3-[(3R)-3-hydroxy-3-(5-methyl-1,3,4-oxadiazol-2-yl)but-1-ynyl]phenyl]pyrimidine-4-carboxamide] |
| 0.15 nM | CN1CC[C@@](O)(C#Cc2cccc(-c3cc(OCC(F)(F)F)cc(C(N)=O)n3)c2)C1=O [Example 189, 6-[3-[2-[(3R)-3-hydroxy-1-methyl-2-oxo-pyrrolidin-3-yl]ethynyl]phenyl]-4(2,2,2-trifluoroethoxy)pyridine-2-carboxamide] |
| < 0.05 nM | CN1CC[C@@](O)(C#Cc2cccc(-c3cc(N4CC(F)(F)C4)cc(C(N)=O)n3)c2)C1=O [Example 200, 4-(3,3-difluoroazetidin-1-yl)-6-[3-[2-[(3R)-3-hydroxy-1-methyl-2-oxo-pyrrolidin-3-yl]ethynyl]phenyl]pyridine-2-carboxamide] |
| 11.3 nM | CN1CC[C@@](O)(C#Cc2cc(-c3nccc(C(N)=O)n3)c3cn[nH]c3c2)C1=O [Example 156, 2-[6-[2-[(3R)-3-hydroxy-1-methyl-2-oxo-pyrrolidin-3-yl]ethynyl]-1H-indazol-4-yl] pyrimidine-4-carboxamide] |
| < 0.05 nM | COc1cc(C(N)=O)nc(-c2ccc(F)c(C#C[C@]3(O)CCN(C)C3=O)c2)c1 [Example 180, 6-[4-fluoro-3-[2-[(3R)-3-hydroxy-1-methyl-2-oxo-pyrrolidin-3-yl]ethynyl]phenyl]-4-methoxy-pyridine-2-carboxamide] |
| 3.67 nM | COc1cc(-c2cccc(C#C[C@]3(O)CCN(C)C3=O)c2)nc(C(N)=O)c1OC [Example 181, 6-[3-[2-[(3R)-3-hydroxy-l-methyl-2-oxo-pyrrolidin-3-yl]ethynyl]phenyl]-3,4-dimethoxy-pyridine-2-carboxamide] |
| < 0.05 nM | CN1CC[C@@](O)(C#Cc2cc(F)c(F)c(-c3ccc(N)c(C(N)=O)n3)c2)C1=O [Example 194, 3-amino-6-[2,3-difluoro-5-[2-[(3R)-3-hydroxy-l-methyl-2-oxo-pyrrolidin-3-yl]ethynyl]phenyl]pyridine-2-carboxamide] |
| < 0.05 nM | Cc1cc(-c2cccc(C#C[C@]3(O)CCN(C)C3=O)c2)nc(C(N)=O)c1O [Example 195, 3-hydroxy-6-[3-[2-[(3R)-3-hydroxy-1-methyl-2-oxo-pyrrolidin-3-yl]ethynyl]phenyl]-4-methyl-pyridine-2-carboxamide] |
| 1.86 nM | CN1CC[C@@](O)(C#Cc2cccc(-c3ccc(F)c(C(N)=O)n3)c2)C1=O [Example 157, 3-fluoro-6-[3-[2-[(3R)-3-hydroxy-l-methyl-2-oxo-pyrrolidin-3-yl]ethynyl]phenyl] pyridine-2-carboxamide] |
| 1 nM | CN1CC[C@@](O)(C#Cc2cc(-c3cnc(N)c(C(N)=O)n3)c3ncsc3c2)C1=O [Example 196, 3-amino-6-[6-[2-[(3R)-3-hydroxy-1-methyl-2-oxo-pyrrolidin-3-yl]ethynyl]-1,3-benzothiazol-4-yl]pyrazine-2-carboxamide] |
| 5.57 nM | CC(C)C[C@H]1CCCN1c1cc(C(N)=O)nc(-c2cccc(C#C[C@]3(O)CCN(C)C3=O)c2)n1 [Example 25, 2-[3-[2-[(3R)-3-hydroxy-1-methyl-2-oxo-pyrrolidin-3-yl]ethynyl]phenyl]-6-[(2R)-2-isobutylpyrrolidin-1-yl] pyrimidine-4-carboxamide] |

| Ki | SMILES |
| --- | --- |
| 4.33 nM | CN1CC[C@@](O)(C#Cc2cccc(-c3nc(C(N)=O)cc4nccn34)c2)C1=O [Example 61, 5-[3-[2-[(3R)-3-hydroxy-1-methyl-2-oxo-pyrrolidin-3-yl]ethynyl]phenyl]imidazo [1,2-c]pyrimidine-7-carboxamide] |
| 0.8 nM | CN1CC[C@@](O)(C#Cc2cccc(-c3cc(CO)cc(C(N)=O)n3)c2)C1=O [Example 197, 4-(hydroxymethyl)-6-[3-[2-[(3R)-3-hydroxy-1-methyl-2-oxo-pyrrolidin-3-yl]ethynyl]phenyl]pyridine-2-carboxamide] |
| 0.21 nM | CN1CC[C@@](O)(C#Cc2cccc(-c3cc(NC4COC4)cc(C(N)=O)n3)c2)C1=O [Example 163, 6-[3-[2-[(3R)-3-hydroxy-1-methyl-2-oxo-pyrrolidin-3-yl]ethynyl]phenyl]-4-(oxetan-3-ylamino)pyridine-2-carboxamide] |
| 0.08 nM | CC(=O)Nc1cc(C(N)=O)nc(-c2cccc(C#C[C@]3(O)CCN(C)C3=O)c2)c1 [Example 175, 4-acetamido-6-[3-[2-[(3R)-3-hydroxy-1-methyl-2-oxo-pyrrolidin-3-yl]ethynyl]phenyl] pyridine-2-carboxamide] |
| 1.05 nM | CN1CC[C@@](O)(C#Cc2cccc(-c3nc(C(N)=O)cc(N4CC[C@@H](O)C4)n3)c2)C1=O [Example 24, 2-[3-[2-[(3R)-3-hydroxy-1-methyl-2-oxo-pyrrolidin-3-yl]ethynyl]phenyl]-6-[(3R)-3-hydroxypyrrolidin-1-yl] pyrimidine-4-carboxamide] |
| 879 nM | CN1CCC(O)(C#Cc2cccc(-c3nc(C(N)=O)ncc3NCC(F)(F)F)c2)C1=O (stereo in doubt) [Example 147, 4-[3-[2-[(3R)-3-hydroxy-1-methyl-2-oxo-pyrrolidin-3-yl]ethynyl]phenyl]-5-(2,2,2-trifluoroethylamino) pyrimidine-2-carboxamide] |
| 0.49 nM | COCc1cc(-c2cccc(C#C[C@]3(O)CCN(C)C3=O)c2)nc(C(N)=O)n1 [Example 183, 4-[3-[2-[(3R)-3-hydroxy-l-methyl-2-oxo-pyrrolidin-3-yl]ethynyl]phenyl]-6-(methoxymethyl)pyrimidine-2-carboxamide] |
| 14.4 nM | CN1CC[C@@](O)(C#Cc2cccc(-c3nccc(C(N)=O)n3)c2F)C1=O [Example 91, 2-[2-fluoro-3-[2-[(3R)-3-hydroxy-1-methyl-2-oxo-pyrrolidin-3-yl]ethynyl]phenyl]pyrimidine-4-carboxamide] |
| 2.87 nM | Cc1c(O)cc(-c2cccc(C#C[C@]3(O)CCN(C)C3=O)c2)nc1C(N)=O [Example 178, 4-hydroxy-6-[3-[2-[(3R)-3-hydroxy-1-methyl-2-oxo-pyrrolidin-3-yl]ethynyl]phenyl]-3-methyl-pyridine-2-carboxamide] |
| 22.8 nM | CN1CC[C@@](O)(C#Cc2cccc(-c3ncc(N4CCOCC4)c(C(N)=O)n3)c2)C1=O [Example 103, 2-[3-[2-[(3R)-3-hydroxy-1-methyl-2-oxo-pyrrolidin-3-yl]ethynyl]phenyl]-5-morpholino-pyrimidine-4-carboxamide] |
| 9.53 nM | CN1CC[C@@](O)(C#Cc2cccc(-c3nc(C(N)=O)ccc3C(F)F)c2)C1=O [Example 188, 5-(difluoromethyl)-6-[3[2-[(3R)-3-hydroxy-1-methyl-2-oxo-pyrrolidin-3-yl]ethynyl]phenyl]pyridine-2-carboxamide] |
| 0.14 nM | CN1CC[C@@](O)(C#Cc2cccc(-c3nc(C(N)=O)cc4c3OCC4)c2)C1=O [Example 186, 7-[3-[2-[(3R)-3-hydroxy-1-methyl-2-oxo-pyrrolidin-3-yl]ethynyl]phenyl]-2,3-dihydrofuro[1,3-c]pyridine-5-carboxamide] |
| < 0.05 nM | CN1CC[C@@](O)(C#Cc2cccc(-c3cc(-n4cc(F)cn4)cc(C(N)=O)n3)c2)C1=O [Example 190, 4-(4-fluoropyrazol-1-yl)-6-[3-[2-[(3R)-3-hydroxy-1-methyl-2-oxo-pyrrolidin-3-yl]ethynyl]phenyl]pyridine-2-carboxamide] |
| 0.5 nM | COCc1cc(C(N)=O)nc(-c2cccc(C#C[C@]3(O)CCN(C)C3=O)c2)c1 [Example 198, 6-[3-[2-[(3R)-3-hydroxy-1-methyl-2-oxo-pyrrolidin-3-yl]ethynyl]phenyl]-4-(methoxymethyl)pyridine-2-carboxamide] |
| 23.8 nM | Cc1ccc(C(N)=O)nc1-c1cccc(C#C[C@]2(O)CCN(C)C2=O)c1 [Example 140, 6-[3-[2-[(3R)-3-hydroxy-1-methyl-2-oxo-pyrrolidin-3-yl]ethynyl]phenyl]-5-methyl-pyridine-2-carboxamide] |
| 0.14 nM | CN1CC[C@@](O)(C#Cc2cc3c(c(-c4nccc(C(N)=O)n4)c2)CCN3)C1=O [Example 184, 2-[6-[2-[(3R)-3-hydroxy-1-methyl-2-oxo-pyrrolidin-3-yl]ethynyl]indolin-4-yl] pyrimidine-4-carboxamide] |
| 4.07 nM | NC(=O)c1nc(-c2cccc(C#C[C@]3(O)CCOC3=O)c2)ccc1N (single isomer, unassigned) [Example 64] |
